Source: ChEMBL document CHEMBL3085634, “Identification of elaiophylin derivatives from the marine-derived actinomycete Streptomyces sp. 7-145 using PCR-based screening” (2013)
In brackets after ≈: the same amount, converted by molar mass.

Assays:
Assay type in all cases: functional
Morganella morganii = test: Antibacterial activity against beta-lactamase producing Morganella morganii ATCC 25830 assessed as growth inhibition after 18 hrs by agar dilution method; details: ATCC 25830, 18 h
Pseudomonas aeruginosa = test: Antibacterial activity against beta-lactamase producing Pseudomonas aeruginosa ATCC 27853 assessed as growth inhibition after 18 hrs by agar dilution method; details: ATCC 27853, 18 h
Klebsiella pneumoniae [1] = test: Antibacterial activity against New Delhi metallo-beta-lactamase 1 producing Klebsiella pneumoniae ATCC BAA-2146 assessed as growth inhibition after 18 hrs by agar dilution method; details: ATCC BAA-2146, 18 h
Klebsiella pneumoniae [2] = test: Antibacterial activity against extended spectrum beta-lactamase producing Klebsiella pneumoniae ATCC 700603 assessed as growth inhibition after 18 hrs by agar dilution method; details: ATCC 700603, 18 h
Escherichia coli [3] = test: Antibacterial activity against beta-lactamase producing Escherichia coli 09-20 assessed as growth inhibition after 18 hrs by agar dilution method; details: 09-20, 18 h
Escherichia coli [4] = test: Antibacterial activity against extended spectrum beta-lactamase producing Escherichia coli 09-1 assessed as growth inhibition after 18 hrs by agar dilution method; details: 09-1, 18 h
Micrococcus luteus = test: Antibacterial activity against apramycin-resistant Micrococcus luteus ATCC 10240 assessed as growth inhibition after 18 hrs by agar dilution method; details: ATCC 10240, 18 h
Enterococcus faecium [5] = test: Antibacterial activity against vancomycin-sensitive Enterococcus faecium 09-10 assessed as growth inhibition after 18 hrs by agar dilution method; details: 09-10, 18 h
Enterococcus faecium [6] = test: Antibacterial activity against vancomycin-resistant Enterococcus faecium ATCC 700221 assessed as growth inhibition after 18 hrs by agar dilution method; details: ATCC 700221, 18 h
Enterococcus faecalis [7] = test: Antibacterial activity against vancomycin-resistant Enterococcus faecalis R6512 assessed as growth inhibition after 18 hrs by agar dilution method; details: R6512, 18 h
Enterococcus faecalis [8] = test: Antibacterial activity against vancomycin-resistant Enterococcus faecalis W4138 assessed as growth inhibition after 18 hrs by agar dilution method; details: W4138, 18 h
Enterococcus faecalis [9] = test: Antibacterial activity against vancomycin-resistant Enterococcus faecalis ATCC 51299 assessed as growth inhibition after 18 hrs by agar dilution method; details: ATCC 51299, 18 h
Enterococcus faecalis [10] = test: Antibacterial activity against vancomycin-sensitive Enterococcus faecalis 09-8 assessed as growth inhibition after 18 hrs by agar dilution method; details: 09-8, 18 h
Enterococcus faecalis [11] = test: Antibacterial activity against vancomycin-sensitive Enterococcus faecalis ATCC 29212 assessed as growth inhibition after 18 hrs by agar dilution method; details: ATCC 29212, 18 h
[12] = tested on: Staphylococcus epidermidis; test: Antibacterial activity against methicillin-resistant Staphylococcus epidermidis 09-3 assessed as growth inhibition after 18 hrs by agar dilution method; details: 09-3, 18 h
Staphylococcus aureus [13] = test: Antibacterial activity against thiostrepton-resistant Staphylococcus aureus ATCC 6538P assessed as growth inhibition after 18 hrs by agar dilution method
Staphylococcus aureus [14] = test: Antibacterial activity against methicillin-resistant Staphylococcus aureus R6101 assessed as growth inhibition after 18 hrs by agar dilution method; details: R6101, 18 h
Staphylococcus aureus [15] = test: Antibacterial activity against methicillin-resistant Staphylococcus aureus 09-13 assessed as growth inhibition after 18 hrs by agar dilution method; details: 09-13, 18 h
Staphylococcus aureus [16] = test: Antibacterial activity against methicillin-resistant Staphylococcus aureus ATCC 33591 assessed as growth inhibition after 18 hrs by agar dilution method; details: ATCC 33591, 18 h
Staphylococcus aureus [17] = test: Antibacterial activity against methicillin-sensitive Staphylococcus aureus 09-6 assessed as growth inhibition after 18 hrs by agar dilution method; details: 09-6, 18 h
Staphylococcus aureus [18] = test: Antibacterial activity against methicillin-sensitive Staphylococcus aureus ATCC 29213 assessed as growth inhibition after 18 hrs by agar dilution method; details: ATCC 29213, 18 h
[19] = tested on: Staphylococcus epidermidis; test: Antibacterial activity against methicillin-sensitive Staphylococcus epidermidis ATCC 12228 assessed as growth inhibition after 18 hrs by agar dilution method; details: ATCC 12228, 18 h
[20] = tested on: Staphylococcus epidermidis; test: Antibacterial activity against methicillin-sensitive Staphylococcus epidermidis 09-9 assessed as growth inhibition after 18 hrs by agar dilution method; details: 09-9, 18 h

| Structure (SMILES) | MIC (Morganella morganii) [µg/mL] | MIC (Pseudomonas aeruginosa) [µg/mL] | MIC (Klebsiella pneumoniae [1]) [µg/mL] | MIC (Klebsiella pneumoniae [2]) [µg/mL] | MIC (Escherichia coli [3]) [µg/mL] | MIC (Escherichia coli [4]) [µg/mL] | MIC (Enterococcus faecium [5]) [µg/mL] | MIC (Enterococcus faecium [6]) [µg/mL] | MIC (Enterococcus faecalis [7]) [µg/mL] | MIC (Enterococcus faecalis [8]) [µg/mL] | MIC (Enterococcus faecalis [9]) [µg/mL] | MIC (Enterococcus faecalis [10]) [µg/mL] | MIC (Enterococcus faecalis [11]) [µg/mL] | MIC [12] [µg/mL] | MIC (Staphylococcus aureus [14]) [µg/mL] | MIC (Staphylococcus aureus [15]) [µg/mL] | MIC (Staphylococcus aureus [16]) [µg/mL] | MIC (Staphylococcus aureus [17]) [µg/mL] | MIC (Staphylococcus aureus [18]) [µg/mL] | MIC [19] [µg/mL] | also measured |
| --- | --- | --- | --- | --- | --- | --- | --- | --- | --- | --- | --- | --- | --- | --- | --- | --- | --- | --- | --- | --- | --- |
| CC[C@@H]1[C@@H](C)OC([C@@H](C)[C@H](O)[C@H](C)[C@H]2OC(=O)/C=C/C=C/[C@H](C)[C@@H]([C@@H](C)[C@@H](O)[C@H](C)[C@@]3(O)C[C@@H](O[C@H]4C[C@H](O)[C@H](O)[C@H](C)O4)[C@H](CC)[C@@H](C)O3)OC(=O)/C=C/C=C/[C@@H]2C)=C[C@H]1O[C@H]1C[C@H](O)[C@H](O)[C@H](C)O1 | > 64 | > 64 | > 64 | > 64 | > 64 | > 64 | > 64 | 4 (≈ 3.97 µM) | 4 (≈ 3.97 µM) | 4 (≈ 3.97 µM) | 2 (≈ 1.99 µM) | 2 (≈ 1.99 µM) | 2 (≈ 1.99 µM) | > 64 | > 64 | 2 (≈ 1.99 µM) | 2 (≈ 1.99 µM) | 2 (≈ 1.99 µM) | 2 (≈ 1.99 µM) | > 64 | MIC (Micrococcus luteus): 2 µg/mL (≈ 1.99 µM); MIC (Staphylococcus aureus [13]): 4 µg/mL (≈ 3.97 µM) |
| CC[C@@H]1[C@@H](C)O[C@@](OC)([C@@H](C)[C@H](O)[C@H](C)[C@H]2OC(=O)/C=C/C=C/[C@H](C)[C@@H]([C@@H](C)[C@@H](O)[C@H](C)[C@@]3(OC)C[C@@H](O[C@H]4C[C@H](O)[C@H](O)[C@H](C)O4)[C@H](C)[C@@H](C)O3)OC(=O)/C=C/C=C/[C@@H]2C)C[C@H]1O[C@H]1C[C@H](O)[C@H](O)[C@H](C)O1 | > 128 | > 128 | > 128 | > 128 | > 128 | > 128 | 64 (≈ 61.6 µM) | 64 (≈ 61.6 µM) | > 128 | 64 (≈ 61.6 µM) | 64 (≈ 61.6 µM) | 64 (≈ 61.6 µM) | 64 (≈ 61.6 µM) | 64 (≈ 61.6 µM) | 16 (≈ 15.4 µM) | 32 (≈ 30.8 µM) | 32 (≈ 30.8 µM) | 32 (≈ 30.8 µM) | 32 (≈ 30.8 µM) | 64 (≈ 61.6 µM) | MIC (Micrococcus luteus): 128 µg/mL (≈ 123 µM); MIC (Staphylococcus aureus [13]): > 128 µg/mL |
| CC[C@@H]1[C@@H](C)O[C@@](OC)([C@@H](C)[C@H](O)[C@H](C)[C@H]2OC(=O)/C=C/C=C/[C@H](C)[C@@H]([C@@H](C)[C@@H](O)[C@H](C)[C@@]3(O)C[C@@H](O[C@H]4C[C@H](O)[C@H](O)[C@H](C)O4)[C@H](CC)[C@@H](C)O3)OC(=O)/C=C/C=C/[C@@H]2C)C[C@H]1O[C@H]1C[C@H](O)[C@H](O)[C@H](C)O1 | > 256 | > 256 | > 256 | > 256 | > 256 | > 256 | 2 (≈ 1.92 µM) | 2 (≈ 1.92 µM) | 1 (≈ 0.962 µM) | 2 (≈ 1.92 µM) | 1 (≈ 0.962 µM) | 2 (≈ 1.92 µM) | 32 (≈ 30.8 µM) | 2 (≈ 1.92 µM) | 1 (≈ 0.962 µM) | 2 (≈ 1.92 µM) | 2 (≈ 1.92 µM) | 2 (≈ 1.92 µM) | 2 (≈ 1.92 µM) | 2 (≈ 1.92 µM) | MIC (Micrococcus luteus): 2 µg/mL (≈ 1.92 µM); MIC [20]: 2 µg/mL (≈ 1.92 µM); MIC (Staphylococcus aureus [13]): 2 µg/mL (≈ 1.92 µM) |
| CC[C@@H]1[C@@H](C)O[C@@](O)([C@@H](C)[C@H](O)[C@H](C)[C@H]2OC(=O)/C=C/C=C/[C@H](C)[C@@H]([C@@H](C)[C@@H](O)[C@H](C)[C@@]3(O)C[C@@H](O[C@H]4C[C@H](O)[C@H](O)[C@H](C)O4)[C@H](C)[C@@H](C)O3)OC(=O)/C=C/C=C/[C@@H]2C)C[C@H]1O[C@H]1C[C@H](O)[C@H](O)[C@H](C)O1 | > 64 | > 64 | > 64 | > 64 | > 64 | > 64 | > 64 | 2 (≈ 1.98 µM) | 2 (≈ 1.98 µM) | 4 (≈ 3.96 µM) | 2 (≈ 1.98 µM) | 16 (≈ 15.8 µM) | 2 (≈ 1.98 µM) | 4 (≈ 3.96 µM) | 2 (≈ 1.98 µM) | 2 (≈ 1.98 µM) | 2 (≈ 1.98 µM) | 2 (≈ 1.98 µM) | 2 (≈ 1.98 µM) | 4 (≈ 3.96 µM) | MIC (Micrococcus luteus): 2 µg/mL (≈ 1.98 µM); MIC (Staphylococcus aureus [13]): 2 µg/mL (≈ 1.98 µM) |
| CC[C@@H]1[C@@H](C)O[C@@](OC)([C@@H](C)[C@H](O)[C@H](C)[C@H]2OC(=O)/C=C/C=C/[C@H](C)[C@@H]([C@@H](C)[C@@H](O)[C@H](C)[C@@]3(OC)C[C@@H](O[C@H]4C[C@H](O)[C@H](O)[C@H](C)O4)[C@H](CC)[C@@H](C)O3)OC(=O)/C=C/C=C/[C@@H]2C)C[C@H]1O[C@H]1C[C@H](O)[C@H](O)[C@H](C)O1 | > 256 | > 256 | > 256 | > 256 | > 256 | > 256 | 32 (≈ 30.4 µM) |  |  |  |  |  |  |  |  |  |  |  |  |  |  |
| CC[C@H]1OC(=O)[C@H](C)[C@@H](O[C@H]2C[C@@](C)(OC)[C@@H](O)[C@H](C)O2)[C@H](C)[C@@H](O[C@@H]2O[C@H](C)C[C@H](N(C)C)[C@H]2O)[C@](C)(O)C[C@@H](C)CN(C)[C@H](C)[C@@H](O)[C@]1(C)O [AZITHROMYCIN] | 64 (≈ 85.4 µM) | 256 (≈ 342 µM) | 64 (≈ 85.4 µM) | 64 (≈ 85.4 µM) | > 256 | 64 (≈ 85.4 µM) | > 256 | > 256 | > 256 | > 256 | > 256 | > 256 | 8 (≈ 10.7 µM) | > 256 | > 256 | > 256 | > 256 | 2 (≈ 2.67 µM) | 2 (≈ 2.67 µM) | > 256 | MIC (Micrococcus luteus): 2 µg/mL (≈ 2.67 µM); MIC (Staphylococcus aureus [13]): > 256 µg/mL |
| CC[C@H]1OC(=O)[C@H](C)[C@@H](O[C@H]2C[C@@](C)(OC)[C@@H](O)[C@H](C)O2)[C@H](C)[C@@H](O[C@@H]2O[C@H](C)C[C@H](N(C)C)[C@H]2O)[C@](C)(O)C[C@@H](C)C(=O)[C@H](C)[C@@H](O)[C@]1(C)O [ERYTHROMYCIN] | > 256 | > 256 | > 256 | > 256 | > 256 | > 256 | > 256 | 64 (≈ 87.2 µM) |  |  | 8 (≈ 10.9 µM) | 32 (≈ 43.6 µM) | 16 (≈ 21.8 µM) | > 256 |  | > 256 | 256 (≈ 349 µM) | 0.25 (≈ 0.341 µM) | 0.25 (≈ 0.341 µM) | 16 (≈ 21.8 µM) |  |
| Cc1onc(-c2ccccc2)c1C(=O)N[C@@H]1C(=O)N2[C@@H]1SC(C)(C)[C@@H]2C(=O)O [OXACILLIN] | 256 (≈ 638 µM) | > 256 | > 256 | > 256 | > 256 | > 256 | > 256 | > 256 |  |  | > 256 | > 256 | 4 (≈ 9.96 µM) | > 256 | > 256 | > 256 | > 256 | 0.5 (≈ 1.25 µM) | 0.5 (≈ 1.25 µM) | > 256 |  |
| CN[C@H](CC(C)C)C(=O)N[C@H]1C(=O)N[C@@H](CC(N)=O)C(=O)N[C@H]2C(=O)N[C@H]3C(=O)N[C@H](C(=O)N[C@H](C(=O)O)c4cc(O)cc(O)c4-c4cc3ccc4O)[C@H](O)c3ccc(c(Cl)c3)Oc3cc2cc(c3O[C@@H]2O[C@H](CO)[C@@H](O)[C@H](O)[C@H]2O[C@H]2C[C@](C)(N)[C@H](O)[C@H](C)O2)Oc2ccc(cc2Cl)[C@H]1O [VANCOMYCIN] |  |  |  |  |  |  |  |  | > 256 | 4 (≈ 2.76 µM) | 4 (≈ 2.76 µM) | 1 (≈ 0.69 µM) | 1 (≈ 0.69 µM) |  |  |  |  |  |  | 0.5 (≈ 0.345 µM) | MIC [20]: 0.5 µg/mL (≈ 0.345 µM) |
